From ChEMBL document CHEMBL5325407, “Structure-based development of potent Plasmodium falciparum M1 and M17 aminopeptidase selective and dual inhibitors via S1'-region optimisation” (Eur J Med Chem, 2023)
≈ marks a conversion by molar mass, not a printed value. Calls of active or inactive are those of the source. The calls are words filed in the database; no cut-off is given here.

What was measured:
[1] = (§1) Inhibition of C-terminal 6-His tagged Plasmodium falciparum M1 aminopeptidase (195 to 1085 residues) expressed in Escherichia coli BL21(DE3) cells using H-Leu-NHMec as substrate assessed as apparent inhibition constant preincubated for 10 mins followed by substrate addition by spectrofluorimetric analysis; settings: read-out: Ki(app)
[2] = as §1, with “M17” for “M1”, “(85” for “(195”, “605” for “1085”, “BL21 (DE3)” for “BL21(DE3)”; settings: read-out: Ki(app)
Plasmodium falciparum = assay: Antiplasmodial activity against drug-sensitive Plasmodium falciparum 3D7 infected in Red blood cell assessed as growth inhibition measured after 72 hrs by LDH assay; type: functional, organism-based; settings: 3D7, Erythrocyte
[3] = molecular target: Histone deacetylase 1 (Homo sapiens) (UniProt Q13547); assay: Inhibition of HDAC1 (unknown origin)
[4] = molecular target: Histone deacetylase 2 (Homo sapiens) (UniProt Q92769); assay: Inhibition of HDAC2 (unknown origin)
[5] = molecular target: Histone deacetylase 5 (Homo sapiens) (UniProt Q9UQL6); assay: Inhibition of HDAC5 (unknown origin)
Sequence of Histone deacetylase 5 (Homo sapiens) (Q9UQL6 whole entry): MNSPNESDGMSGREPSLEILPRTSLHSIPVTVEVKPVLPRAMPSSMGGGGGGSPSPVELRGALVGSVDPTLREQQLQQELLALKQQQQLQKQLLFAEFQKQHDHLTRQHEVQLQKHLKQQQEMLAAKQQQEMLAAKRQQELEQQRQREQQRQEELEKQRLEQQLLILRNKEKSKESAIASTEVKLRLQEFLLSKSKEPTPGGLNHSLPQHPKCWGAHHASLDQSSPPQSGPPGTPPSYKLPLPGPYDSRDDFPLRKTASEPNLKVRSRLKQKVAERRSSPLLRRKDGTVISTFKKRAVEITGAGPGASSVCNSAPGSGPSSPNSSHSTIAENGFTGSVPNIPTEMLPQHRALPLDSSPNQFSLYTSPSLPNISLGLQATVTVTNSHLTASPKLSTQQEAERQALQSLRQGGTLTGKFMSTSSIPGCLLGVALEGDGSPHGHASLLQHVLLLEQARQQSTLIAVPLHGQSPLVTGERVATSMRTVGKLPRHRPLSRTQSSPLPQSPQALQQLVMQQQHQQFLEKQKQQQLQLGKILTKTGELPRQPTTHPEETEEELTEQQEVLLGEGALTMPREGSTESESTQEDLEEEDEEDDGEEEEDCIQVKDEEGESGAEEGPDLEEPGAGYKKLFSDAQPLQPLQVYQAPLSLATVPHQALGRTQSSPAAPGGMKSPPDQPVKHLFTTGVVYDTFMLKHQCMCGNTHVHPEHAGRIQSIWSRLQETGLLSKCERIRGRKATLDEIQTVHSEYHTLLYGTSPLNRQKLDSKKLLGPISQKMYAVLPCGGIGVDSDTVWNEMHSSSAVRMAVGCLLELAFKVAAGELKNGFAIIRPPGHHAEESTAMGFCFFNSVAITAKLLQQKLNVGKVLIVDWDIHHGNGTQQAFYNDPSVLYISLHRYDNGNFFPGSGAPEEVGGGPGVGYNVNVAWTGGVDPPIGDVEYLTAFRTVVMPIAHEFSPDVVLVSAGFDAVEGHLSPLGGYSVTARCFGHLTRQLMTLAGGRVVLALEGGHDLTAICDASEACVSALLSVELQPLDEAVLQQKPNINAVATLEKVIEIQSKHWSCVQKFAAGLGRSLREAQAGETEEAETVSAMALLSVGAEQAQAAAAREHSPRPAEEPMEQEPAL

[6] = molecular target: T1, Histone deacetylase 7 (Homo sapiens) (UniProt Q8WUI4); assay: Inhibition of HDAC7 (unknown origin)
T1 sequence (whole entry): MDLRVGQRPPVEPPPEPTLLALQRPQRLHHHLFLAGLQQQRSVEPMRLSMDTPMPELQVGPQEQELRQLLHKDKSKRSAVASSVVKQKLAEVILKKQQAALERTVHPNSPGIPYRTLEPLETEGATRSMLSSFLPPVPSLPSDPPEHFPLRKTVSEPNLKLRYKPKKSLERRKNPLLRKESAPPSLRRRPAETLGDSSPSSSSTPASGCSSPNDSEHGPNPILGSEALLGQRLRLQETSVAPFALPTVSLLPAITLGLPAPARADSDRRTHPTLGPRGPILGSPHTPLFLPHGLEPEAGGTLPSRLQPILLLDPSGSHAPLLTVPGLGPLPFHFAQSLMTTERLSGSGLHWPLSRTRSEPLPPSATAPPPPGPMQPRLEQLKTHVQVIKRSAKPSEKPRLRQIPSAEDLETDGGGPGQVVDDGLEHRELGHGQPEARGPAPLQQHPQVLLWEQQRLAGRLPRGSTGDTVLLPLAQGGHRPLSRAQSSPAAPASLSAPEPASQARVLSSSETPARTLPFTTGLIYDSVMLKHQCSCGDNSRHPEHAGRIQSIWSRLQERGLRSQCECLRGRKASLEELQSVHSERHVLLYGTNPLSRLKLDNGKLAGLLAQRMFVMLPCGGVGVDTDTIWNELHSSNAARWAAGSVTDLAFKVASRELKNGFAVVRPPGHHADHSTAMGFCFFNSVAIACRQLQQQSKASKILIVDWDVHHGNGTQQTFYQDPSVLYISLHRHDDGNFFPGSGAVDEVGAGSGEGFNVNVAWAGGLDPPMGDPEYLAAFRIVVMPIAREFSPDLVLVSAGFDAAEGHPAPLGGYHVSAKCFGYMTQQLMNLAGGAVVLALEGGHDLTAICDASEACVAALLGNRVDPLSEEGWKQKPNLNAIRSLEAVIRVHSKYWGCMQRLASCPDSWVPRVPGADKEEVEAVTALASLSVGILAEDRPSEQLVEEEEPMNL

[7] = molecular target: T2, Histone deacetylase 8 (Homo sapiens) (UniProt Q9BY41); assay: Inhibition of HDAC8 (unknown origin)
T2 sequence (whole entry): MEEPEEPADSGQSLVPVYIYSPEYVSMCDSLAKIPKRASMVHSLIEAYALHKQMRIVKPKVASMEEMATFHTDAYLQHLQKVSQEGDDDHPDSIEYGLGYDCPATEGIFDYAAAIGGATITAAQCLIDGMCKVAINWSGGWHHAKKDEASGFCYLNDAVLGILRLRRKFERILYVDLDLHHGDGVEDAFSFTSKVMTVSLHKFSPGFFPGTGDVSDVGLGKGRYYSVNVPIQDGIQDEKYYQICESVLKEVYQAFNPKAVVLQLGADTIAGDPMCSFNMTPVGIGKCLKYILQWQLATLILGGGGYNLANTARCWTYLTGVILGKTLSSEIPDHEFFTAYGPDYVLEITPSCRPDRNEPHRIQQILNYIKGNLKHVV

[8] = molecular target: Histone deacetylase 9 (Homo sapiens) (UniProt Q9UKV0); assay: Inhibition of HDAC9 (unknown origin)
Sequence of Histone deacetylase 9 (Homo sapiens) (Q9UKV0 whole entry): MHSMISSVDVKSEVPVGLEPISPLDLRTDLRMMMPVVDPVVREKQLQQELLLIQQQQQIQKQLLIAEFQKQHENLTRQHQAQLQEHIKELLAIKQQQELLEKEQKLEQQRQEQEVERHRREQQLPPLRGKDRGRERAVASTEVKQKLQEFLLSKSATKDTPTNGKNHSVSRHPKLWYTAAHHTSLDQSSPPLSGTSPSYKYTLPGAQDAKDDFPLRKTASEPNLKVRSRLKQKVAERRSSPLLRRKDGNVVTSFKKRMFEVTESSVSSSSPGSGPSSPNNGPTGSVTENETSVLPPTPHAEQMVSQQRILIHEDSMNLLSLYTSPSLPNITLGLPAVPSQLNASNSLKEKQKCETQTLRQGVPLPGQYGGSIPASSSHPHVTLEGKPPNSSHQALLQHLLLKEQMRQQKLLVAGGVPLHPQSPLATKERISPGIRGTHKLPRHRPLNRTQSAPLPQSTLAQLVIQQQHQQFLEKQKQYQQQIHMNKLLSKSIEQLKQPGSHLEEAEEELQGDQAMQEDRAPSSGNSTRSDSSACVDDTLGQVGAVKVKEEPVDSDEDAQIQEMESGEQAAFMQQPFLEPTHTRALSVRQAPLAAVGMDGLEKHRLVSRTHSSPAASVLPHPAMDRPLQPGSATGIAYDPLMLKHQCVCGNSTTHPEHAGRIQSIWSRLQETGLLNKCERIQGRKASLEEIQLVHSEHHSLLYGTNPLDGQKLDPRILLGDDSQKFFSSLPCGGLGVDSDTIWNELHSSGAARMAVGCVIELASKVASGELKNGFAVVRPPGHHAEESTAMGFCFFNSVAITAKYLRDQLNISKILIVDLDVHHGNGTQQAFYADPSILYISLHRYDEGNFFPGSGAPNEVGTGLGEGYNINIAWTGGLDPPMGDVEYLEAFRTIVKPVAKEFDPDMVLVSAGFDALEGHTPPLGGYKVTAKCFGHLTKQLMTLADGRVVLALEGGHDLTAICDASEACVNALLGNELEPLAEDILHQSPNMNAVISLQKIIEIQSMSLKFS

[9] = molecular target: T3, Polyamine deacetylase HDAC10 (Homo sapiens) (UniProt Q969S8); assay: Inhibition of HDAC10 (unknown origin)
T3 sequence (whole entry): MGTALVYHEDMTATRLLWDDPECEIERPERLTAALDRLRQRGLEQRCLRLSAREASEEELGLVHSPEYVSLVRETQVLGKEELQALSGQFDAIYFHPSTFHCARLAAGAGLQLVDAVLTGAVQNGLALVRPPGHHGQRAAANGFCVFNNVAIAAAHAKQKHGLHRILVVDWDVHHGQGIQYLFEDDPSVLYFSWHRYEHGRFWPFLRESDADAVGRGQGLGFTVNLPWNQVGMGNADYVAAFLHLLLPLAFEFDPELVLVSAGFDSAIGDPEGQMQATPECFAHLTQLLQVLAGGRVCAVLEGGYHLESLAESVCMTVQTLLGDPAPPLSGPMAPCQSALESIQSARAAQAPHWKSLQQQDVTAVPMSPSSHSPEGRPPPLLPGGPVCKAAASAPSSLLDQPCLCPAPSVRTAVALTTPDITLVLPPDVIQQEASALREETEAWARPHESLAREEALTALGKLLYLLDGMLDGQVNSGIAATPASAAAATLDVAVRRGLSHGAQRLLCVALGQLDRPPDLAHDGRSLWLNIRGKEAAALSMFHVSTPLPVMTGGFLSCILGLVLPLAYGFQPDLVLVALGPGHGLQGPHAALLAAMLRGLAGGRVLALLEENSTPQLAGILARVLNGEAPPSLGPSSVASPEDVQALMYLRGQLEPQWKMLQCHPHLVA

[10] = molecular target: Endoplasmic reticulum aminopeptidase 1 (Homo sapiens) (UniProt Q9NZ08); assay: Inhibition of ERAP1 (unknown origin)
Sequence of Endoplasmic reticulum aminopeptidase 1 (Homo sapiens) (Q9NZ08 whole entry): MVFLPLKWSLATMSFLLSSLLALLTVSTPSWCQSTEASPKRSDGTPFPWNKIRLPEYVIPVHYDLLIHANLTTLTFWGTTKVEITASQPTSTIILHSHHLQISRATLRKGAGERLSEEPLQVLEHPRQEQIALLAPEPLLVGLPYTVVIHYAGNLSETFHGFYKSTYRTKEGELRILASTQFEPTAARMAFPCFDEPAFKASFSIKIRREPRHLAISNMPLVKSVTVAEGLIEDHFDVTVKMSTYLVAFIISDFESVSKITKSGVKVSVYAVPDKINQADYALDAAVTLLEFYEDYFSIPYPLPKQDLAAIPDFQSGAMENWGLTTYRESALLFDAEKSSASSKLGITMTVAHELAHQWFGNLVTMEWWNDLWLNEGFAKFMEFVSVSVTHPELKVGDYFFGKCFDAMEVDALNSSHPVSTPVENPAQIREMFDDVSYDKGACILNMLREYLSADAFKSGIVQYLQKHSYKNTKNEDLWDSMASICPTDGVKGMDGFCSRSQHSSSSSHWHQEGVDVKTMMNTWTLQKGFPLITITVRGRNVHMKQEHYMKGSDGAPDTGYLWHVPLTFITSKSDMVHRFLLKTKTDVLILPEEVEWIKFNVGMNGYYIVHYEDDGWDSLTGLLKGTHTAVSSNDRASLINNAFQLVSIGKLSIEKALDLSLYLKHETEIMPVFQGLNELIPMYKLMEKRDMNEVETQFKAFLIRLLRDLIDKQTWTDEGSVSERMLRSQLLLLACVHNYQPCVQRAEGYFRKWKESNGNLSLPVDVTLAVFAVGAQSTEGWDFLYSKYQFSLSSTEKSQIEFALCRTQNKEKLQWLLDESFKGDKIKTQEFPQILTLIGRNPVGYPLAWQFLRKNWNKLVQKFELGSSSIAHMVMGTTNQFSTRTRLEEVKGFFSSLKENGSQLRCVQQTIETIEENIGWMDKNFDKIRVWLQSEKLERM

[11] = molecular target: Endoplasmic reticulum aminopeptidase 2 (Homo sapiens) (UniProt Q6P179); assay: Inhibition of ERAP2 (unknown origin)
[12] = molecular target: Neutrophil collagenase (Homo sapiens) (UniProt P22894); assay: Inhibition of MMP8 (unknown origin) at 10 uM relative to control
[13] = molecular target: Matrix metalloproteinase-9 (Homo sapiens) (UniProt P14780); assay: Inhibition of MMP9 (unknown origin) at 10 uM relative to control
Sequence of Matrix metalloproteinase-9 (Homo sapiens) (P14780 whole entry): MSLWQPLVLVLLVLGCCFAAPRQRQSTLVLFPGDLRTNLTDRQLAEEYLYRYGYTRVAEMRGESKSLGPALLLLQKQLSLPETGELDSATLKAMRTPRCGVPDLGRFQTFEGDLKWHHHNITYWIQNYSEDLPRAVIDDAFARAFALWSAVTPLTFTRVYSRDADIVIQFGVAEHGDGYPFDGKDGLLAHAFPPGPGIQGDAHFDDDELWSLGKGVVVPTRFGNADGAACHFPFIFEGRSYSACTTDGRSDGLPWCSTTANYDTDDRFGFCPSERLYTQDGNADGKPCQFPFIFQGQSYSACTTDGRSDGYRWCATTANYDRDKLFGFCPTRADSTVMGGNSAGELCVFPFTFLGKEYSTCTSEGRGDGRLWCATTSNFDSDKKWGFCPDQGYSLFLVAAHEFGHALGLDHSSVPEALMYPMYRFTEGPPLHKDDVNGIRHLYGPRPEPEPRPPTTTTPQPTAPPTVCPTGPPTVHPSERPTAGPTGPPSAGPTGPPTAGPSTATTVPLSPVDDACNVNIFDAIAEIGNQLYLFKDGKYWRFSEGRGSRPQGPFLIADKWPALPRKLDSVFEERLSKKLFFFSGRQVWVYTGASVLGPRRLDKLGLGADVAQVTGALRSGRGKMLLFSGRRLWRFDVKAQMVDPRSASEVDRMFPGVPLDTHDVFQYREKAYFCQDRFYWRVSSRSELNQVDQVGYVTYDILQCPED

[14] = molecular target: Collagenase 3 (Homo sapiens) (UniProt P45452); assay: Inhibition of MMP13 (unknown origin) at 10 uM relative to control
[15] = molecular target: Matrix metalloproteinase-15 (Homo sapiens) (UniProt P51511); assay: Inhibition of MMP15 (unknown origin) at 10 uM relative to control
Sequence of Matrix metalloproteinase-15 (Homo sapiens) (P51511 132-669 limits assumed): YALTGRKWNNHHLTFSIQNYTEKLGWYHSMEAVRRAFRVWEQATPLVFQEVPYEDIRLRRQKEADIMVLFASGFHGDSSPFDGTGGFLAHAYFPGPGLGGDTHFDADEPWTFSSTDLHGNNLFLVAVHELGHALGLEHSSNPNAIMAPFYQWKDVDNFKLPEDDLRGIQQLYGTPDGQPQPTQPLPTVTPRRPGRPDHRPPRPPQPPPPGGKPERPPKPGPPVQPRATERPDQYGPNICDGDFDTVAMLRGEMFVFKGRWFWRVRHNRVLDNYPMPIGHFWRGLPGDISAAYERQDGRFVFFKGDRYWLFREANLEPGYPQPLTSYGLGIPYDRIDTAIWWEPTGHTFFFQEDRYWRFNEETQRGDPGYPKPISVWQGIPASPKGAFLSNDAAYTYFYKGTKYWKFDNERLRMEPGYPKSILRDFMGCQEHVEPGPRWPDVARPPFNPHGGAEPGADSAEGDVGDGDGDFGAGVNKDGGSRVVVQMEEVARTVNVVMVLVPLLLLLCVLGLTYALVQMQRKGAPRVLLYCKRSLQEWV

[16] = molecular target: Matrix metalloproteinase-24 (Homo sapiens) (UniProt Q9Y5R2); assay: Inhibition of MMP24 (unknown origin) at 10 uM relative to control
Sequence of Matrix metalloproteinase-24 (Homo sapiens) (Q9Y5R2 whole entry): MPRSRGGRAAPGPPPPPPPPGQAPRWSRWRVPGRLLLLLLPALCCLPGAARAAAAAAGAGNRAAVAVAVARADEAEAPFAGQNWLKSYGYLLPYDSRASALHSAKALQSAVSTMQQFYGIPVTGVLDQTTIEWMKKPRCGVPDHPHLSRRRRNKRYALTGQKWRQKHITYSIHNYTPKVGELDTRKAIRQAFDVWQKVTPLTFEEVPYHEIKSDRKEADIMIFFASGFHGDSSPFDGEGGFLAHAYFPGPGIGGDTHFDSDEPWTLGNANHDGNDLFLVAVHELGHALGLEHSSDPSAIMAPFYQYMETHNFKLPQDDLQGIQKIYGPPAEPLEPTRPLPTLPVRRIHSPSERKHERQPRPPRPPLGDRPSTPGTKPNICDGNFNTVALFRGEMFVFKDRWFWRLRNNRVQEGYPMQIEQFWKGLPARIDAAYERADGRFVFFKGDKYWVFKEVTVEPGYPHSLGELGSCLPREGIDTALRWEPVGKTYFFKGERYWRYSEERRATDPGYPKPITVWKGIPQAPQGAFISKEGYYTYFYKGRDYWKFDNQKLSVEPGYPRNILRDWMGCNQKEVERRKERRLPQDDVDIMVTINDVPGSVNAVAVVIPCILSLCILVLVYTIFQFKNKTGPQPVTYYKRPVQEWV

[17] = Kinetic solubility of the compound in 0.01 M HCL at pH 2.0 measured after 30 mins by nephelometric analysis; type: physicochemical; settings: read-out: Kinetic_solubility
[18] = Kinetic solubility of the compound in phosphate buffer at pH 6.5 measured after 30 mins by nephelometric analysis; type: physicochemical; settings: read-out: Kinetic_solubility
[19] = Metabolic stability in human liver microsomes assessed as half life measured for 60 mins in presence of NADPH; type: ADME, Microsome
[20] = Metabolic stability in mouse liver microsomes assessed as half life measured for 60 mins in presence of NADPH; type: ADME, Microsome
[21] = Metabolic stability in human liver microsomes assessed as intrinsic clearance measured per mg protein for 60 mins in presence of NADPH; type: ADME, Microsome; settings: read-out: CLH
[22] = Metabolic stability in mouse liver microsomes assessed as intrinsic clearance measured per mg protein for 60 mins in presence of NADPH; type: ADME, Microsome; settings: read-out: CLH
HEK293 = assay: Cytotoxicity against HEK293 cells assessed as inhibition of cell growth at 40 uM; type: toxicity, cell-based; settings: human, hek293, 40 µM

inhibition [3]: inactive
inhibition [4]: inactive
inhibition [5]: inactive
inhibition [6]: inactive
inhibition [7]: inactive
inhibition [8]: inactive
inhibition [9]: inactive
inhibition [10]: inactive
inhibition [11]: inactive
inhibition [12]: > 50%
inhibition [13]: > 50%
inhibition [14]: > 50%
inhibition [15]: > 50%
inhibition [16]: > 50%
solubility kinetic at 0.5 h [17]: 3.1 µg/mL (≈ 7.22 µM)
solubility kinetic at 0.5 h [18]: 1.6 µg/mL (≈ 3.73 µM)
half-life [19]: 1.77 h
half-life [20]: 1.75 h
microsomal CLint [21]: 16 µL/min/mg
microsomal CLint [22]: 17 µL/min/mg
Compound: O=C(CNc1ccccc1)NC(C(=O)NO)c1ccc(-c2cc(F)c(F)c(F)c2)cc1 (centres undefined)
Ki [1]: 66 nM
Ki [2]: 57 nM
EC50 (Plasmodium falciparum): 170 nM
Activity (HEK293): Non-Toxic
